The values below come from patent publication US9181183B2, “Prostaglandin D synthase inhibitory piperidine compounds” (Taiho Pharmaceutical Co., Ltd., priority 2010, dated 2015).

The target in one assay is human H-PGDS (Homo sapiens, UniProt O60760). Briefly: Hematopoietic prostaglandin D synthase (H-PGDS) inhibiting action, [14C]PGH2 to PGD2 conversion, TLC radioassay. In kind it is biochemical. The conditions noted are these: compound 0.1 μM; inhibition rate relative to solvent control group; [14C] prostaglandin H2 10 μM, 25° C. The procedure: The test was carried out according to the method of Urade, Y. et al. (J. Biol. Chem., 262, 3820-3825, (1987)). More specifically, a reaction mixture (49 μL) containing 100 mM Tris-HCl (pH 8.0), 1 mM reduced form glutathione, 0.1 mg/mL γ-globulin, human H-PGDS (q.s.), and a compound (0.1 μM) was preincubated at 25° C. for 5 minutes. A DMSO solution (final concentration: 1%) was added to the solvent control group. Subsequently, 1 μL of [^14C] prostaglandin H2 (final concentration: 10 μM) was added to start the reaction. One minute after the start of the reaction, 250 μL of a reaction stopper solution (diethylether/methanol/1M citric acid (30/4/1)) cooled with ice was added to stop the reaction. After the reaction was stopped, 50 μL of the upper layer portion (organic solvent phase) was applied to a TLC plate and developed at −20° C. for 45 minutes (developing solvent: diethylether/methanol/acetic acid (90/2/1)). After the TLC plate was dried and exposed to an imaging plate for 1 to 24 hours, the radioactivity corresponding to prostaglandin D2 (PGD2) was analyzed using an image analyzer (produced by Fujifilm Corporation). The area (%) occupied by the PGD2 band per lane and the inhibition rate (%) of each Example compound at 0.1 μM relative to the control group in each experiment were calculated.
Sequence of human H-PGDS (O60760 whole entry): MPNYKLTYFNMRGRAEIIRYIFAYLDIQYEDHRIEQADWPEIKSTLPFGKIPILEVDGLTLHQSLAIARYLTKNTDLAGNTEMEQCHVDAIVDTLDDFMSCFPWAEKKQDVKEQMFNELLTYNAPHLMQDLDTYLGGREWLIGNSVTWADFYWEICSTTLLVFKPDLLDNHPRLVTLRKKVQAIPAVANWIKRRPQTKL
As for “N-(5-(4-(cyclopropylcarboxamido)phenyl)thiazol-2-yl)-4-(pyridin-2-ylmethylene)piperidine-1-carboxamide [Example 21]”, the “H-PGDS inh. (% at 0.1 μM)” value turned out to be 58.7%.

The same assay, now with this note: compound 0.1 μM; inhibition rate relative to solvent control group; [14C] prostaglandin H2 10 μM, 25° C.; read-out: H-PGDS inh. (% at 0.1 μM).
Regarding `O=C(NC1CCN(C(=O)c2cccc(F)c2)CC1)N1CCC(=Cc2cc(F)ccc2F)CC1` [Example 61, 4-(2,5-difluorobenzylidene)-N-(1-(3-fluorobenzoyl)piperidin-4-yl)piperidine-1-carboxamide], the inhibition at 0.1 µM is 67.7%.

Regarding `Cc1nccn1Cc1cnc(NC(=O)N2CCC(=Cc3ccccn3)CC2)s1` [Example 83, N-(5-((2-methyl-1H-imidazol-1-yl)methyl)thiazol-2-yl)-4-(pyridin-2-ylmethylene)piperidine-1-carboxamide], the inhibition at 0.1 µM was determined as 41.6%. Turning to `O=C(NC1CCN(C(=O)c2ccccc2)CC1)N1CCC(=Cc2cc(F)ccc2F)CC1` [Example 47, N-(1-benzoylpiperidin-4-yl)-4-(2,5-difluorobenzylidene)piperidine-1-carboxamide], the inhibition at 0.1 µM was 62%. Same read-out and setting: the figure for `COc1ccc(CN2CCC(NC(=O)N3CCC(=Cc4cc(F)ccc4F)CC3)CC2)cc1Cl` [Example 36, N-(1-(3-chloro-4-methoxybenzyl)piperidin-4-yl)-4-(2,5-difluorobenzylidene)piperidine-1-carboxamide] is 58.3%; for `O=C(O)c1ccc(-c2cnc(NC(=O)N3CCC(=Cc4ccccn4)CC3)s2)nc1` [Example 27, 6-(2-(4-(pyridin-2-ylmethylene)piperidine-1-carboxamido)thiazol-5-yl)nicotinic acid] it is 50.2%. On the same count and under the same terms, the figure for `O=C(Nc1ccc(NC(=O)N2CCC(=Cc3cc(F)ccc3F)CC2)cc1)c1ccccn1` [Example 74, N-(4-(4-(2,5-difluorobenzylidene)piperidine-1-carboxamido)phenyl)picolinamide] is 70.9%; for `COC(=O)c1ccccc1CNC(=O)N1CCC(=Cc2cc(F)ccc2F)CC1` [Example 78, Methyl 2-((4-(2,5-difluorobenzylidene)piperidine-1-carboxamido)methyl)benzoate] it is 48.3%; for `O=C(NC1CCN(C(=O)C2CCCC2)CC1)N1CCC(=Cc2cc(F)ccc2F)CC1` [Example 53, N-(1-(cyclopentanecarbonyl)piperidin-4-yl)-4-(2,5-difluorobenzylidene)piperidine-1-carboxamide] it is 69%. Regarding `Cc1noc(C)c1-c1ccc2nc(NC(=O)N3CCC(=Cc4ccccn4)CC3)sc2c1` [Example 4, N-(6-(3,5-dimethylisoxazol-4-yl)-benzo[d]thiazol-2-yl)-4-(pyridin-2-ylmethylene)-piperidine-1-carboxamide], the inhibition at 0.1 µM amounted to 62.9%. Still for that read-out and setting: with `O=C(NC1CCN(CC(F)F)CC1)N1CCC(=Cc2cc(F)ccc2F)CC1` [Example 44, 4-(2,5-difluorobenzylidene)-N-(1-(2,2-difluoroethyl)piperidin-4-yl)piperidine-1-carboxamide] the figure was 81%. As for `O=C(Nc1nc2ccc(-c3cccs3)cc2s1)N1CCC(=Cc2ccccn2)CC1` [Example 8, N-(6-(thiophen-2-yl)-benzo[d]thiazol-2-yl)-4-(pyridin-2-ylmethylene)-piperidine-1-carboxamide], the inhibition at 0.1 µM was 80%.

Take `CC(C)C(=O)Nc1ccc(NC(=O)N2CCC(=Cc3cc(F)ccc3F)CC2)cc1` [Example 77, 4-(2,5-difluorobenzylidene)-N-(4-isobutyramidophenyl)piperidine-1-carboxamide]: the inhibition at 0.1 µM came to 68.1%. On to `O=C(Nc1ccc2nc(NC(=O)N3CCC(=Cc4ccccn4)CC3)sc2c1)N1CCOCC1` [Example 11, N-(2-(4-(pyridin-2-ylmethylene)piperidine-1-carboxamido)benzo[d]thiazol-6-yl)morpholine-4-carboxamide], for which the inhibition at 0.1 µM is 52.4%. For the compound `O=C(NC1CCN(C(=O)C2CCC2)CC1)N1CCC(=Cc2cc(F)ccc2F)CC1` [Example 50, N-(1-(cyclobutanecarbonyl)piperidin-4-yl)-4-(2,5-difluorobenzylidene)piperidine-1-carboxamide], the inhibition at 0.1 µM worked out at 59.9%. On to `O=C(Nc1ccon1)N1CCC(NC(=O)N2CCC(=Cc3cc(F)ccc3F)CC2)CC1` [Example 67, 4-(2,5-difluorobenzylidene)-N-(1-(isoxazol-3-ylcarbamoyl)piperidin-4-yl)piperidine-1-carboxamide], for which the inhibition at 0.1 µM amounted to 51.7%. Still for that read-out and setting: the figure for `O=C(Nc1ccc(NC(=O)N2CCC(=Cc3cc(F)ccc3F)CC2)cc1)c1cscn1` [Example 75, N-(4-(4-(2,5-difluorobenzylidene)piperidine-1-carboxamido)phenyl)thiazole-4-carboxamide] is 71.2%; for `O=C(Nc1cnc2ccccc2c1)N1CCC(=Cc2cc(F)ccc2F)CC1` [Example 42, 4-(2,5-difluorobenzylidene)-N-(quinolin-3-yl)piperidine-1-carboxamide] it is 61.4%; for `CN(C)C(=O)N1CCC(NC(=O)N2CCC(=Cc3cc(F)ccc3F)CC2)CC1` [Example 52, 4-(4-(2,5-difluorobenzylidene)piperidine-1-carboxamido)-N,N-dimethylpiperidine-1-carboxamide] it is 74.6%. With `CS(=O)(=O)NC(=O)c1ccc(-c2ccc(NC(=O)N3CCC(=Cc4ccccn4)CC3)cn2)cc1` [Example 32, N-(6-(4-(methylsulfonylcarbamoyl)phenyl)pyridin-3-yl)-4-(pyridin-2-ylmethylene)piperidine-1-carboxamide], the inhibition at 0.1 µM is 76.1%. On the same count and under the same terms, with `O=C(Nc1ccc(OCc2ccccc2)cc1)N1CCC(=Cc2cc(F)ccc2F)CC1` [Example 69, N-(4-(benzyloxy)phenyl)-4-(2,5-difluorobenzylidene)piperidine-1-carboxamide] the figure was 51.3%; with `O=C(Nc1nccs1)c1ccc(-c2cnc(NC(=O)N3CCC(=Cc4ccccn4)CC3)s2)cc1` [Example 22, 4-(pyridin-2-ylmethylene)-N-(5-(4-(thiazol-2-ylcarbamoyl)phenyl)thiazol-2-yl)piperidine-1-carboxamide], 66.5%. Regarding `Cn1cccc1C(=O)N1CCC(NC(=O)N2CCC(=Cc3cc(F)ccc3F)CC2)CC1` [Example 55, 4-(2,5-difluorobenzylidene)-N-(1-(1-methyl-1H-pyrrole-2-carbonyl)piperidin-4-yl)piperidine-1-carboxamide], the inhibition at 0.1 µM came to 70.9%. On the same count and under the same terms, the figure for `O=C(Nc1ccc(OCc2ccccc2)cc1)N1CCC(=Cc2ccccn2)CC1` [Example 68, N-(4-(benzyloxy)phenyl)-4-(pyridin-2-ylmethylene)piperidine-1-carboxamide] is 59.8%; for `O=C(Nc1ccc(-c2cnc(NC(=O)N3CCC(=Cc4ccccn4)CC3)s2)cc1)c1cscn1` [Example 26, N-(4-(2-(4-(pyridin-2-ylmethylene)piperidine-1-carboxamido)thiazol-5-yl)phenyl)thiazole-4-carboxamide] it is 57.4%. With `Cc1ccnc(C(=O)N2CCC(NC(=O)N3CCC(=Cc4cc(F)ccc4F)CC3)CC2)c1` [Example 63, 4-(2,5-difluorobenzylidene)-N-(1-(4-methylpicolinoyl)piperidin-4-yl)piperidine-1-carboxamide], the inhibition at 0.1 µM is 64.7%.

As to `N#Cc1cccc(CN2CCC(NC(=O)N3CCC(=Cc4cc(F)ccc4F)CC3)CC2)c1` [Example 37, N-(1-(3-cyanobenzyl)piperidin-4-yl)-4-(2,5-difluorobenzylidene)piperidine-1-carboxamide], the inhibition at 0.1 µM was 64.8%. Take `O=C(NC1CCN(C(=O)c2ccccn2)CC1)N1CCC(=Cc2cc(F)ccc2F)CC1` [Example 51, 4-(2,5-difluorobenzylidene)-N-(1-picolinoylpiperidin-4-yl)piperidine-1-carboxamide]: the inhibition at 0.1 µM worked out at 50%.

For the compound `O=C(NC1CCN(C(=O)c2cscn2)CC1)N1CCC(=Cc2cc(F)ccc2F)CC1` [Example 59, 4-(2,5-difluorobenzylidene)-N-(1-(thiazole-4-carbonyl)piperidin-4-yl)piperidine-1-carboxamide], the inhibition at 0.1 µM was 76.8%. With `O=C(Nc1ccc(NC(=O)N2CCC(=Cc3cc(F)ccc3F)CC2)cn1)c1cscn1` [Example 80, N-(5-(4-(2,5-difluorobenzylidene)piperidine-1-carboxamido)pyridin-2-yl)thiazole-4-carboxamide], the inhibition at 0.1 µM came to 66%. On the same count and under the same terms, with `O=C(Nc1ccc(Oc2ncccn2)cc1)N1CCC(=Cc2cc(F)ccc2F)CC1` [Example 70, 4-(2,5-difluorobenzylidene)-N-(4-(pyrimidin-2-yloxy)phenyl)piperidine-1-carboxamide] the figure was 84.2%; with `O=C(O)c1ccc(-c2cnc(NC(=O)N3CCC(=Cc4ccccn4)CC3)s2)cc1` [Example 20, 4-(2-(4-(pyridin-2-ylmethylene)piperidine-1-carboxamido)thiazol-5-yl)benzoic acid], 61.4%; with `O=C(Nc1nc2ccc(-c3cccnc3)cc2s1)N1CCC(=Cc2ccccn2)CC1` [Example 3, N-(6-(pyridin-3-yl)-benzo[d]thiazol-2-yl)-4-(pyridin-2-ylmethylene)-piperidine-1-carboxamide], 85.7%.
